# Columns and labels:
# [1] = large dose of CORM-2 injected intravenously into rabbits; cited from earlier work
# [2] = tested on: C. scutulatus scutulatus venom; settings: CORM-2 as single agent; cited from earlier work
# Atheris nitschei venom = settings: previously characterized by this laboratory; cited from earlier work
# [3] = tested on: C. scutulatus scutulatus (type B) venom; assay: Rabbit model of subcutaneous envenomation, thrombelastography and vital signs; format: in vivo, New Zealand White rabbits; settings: n=1
# Excerpt: Male New Zealand White rabbits (2-3 kg) were procured from Charles River Laboratories (San Diego, CA, USA) and housed within our animal facility and allowed food and water ad libitum for at least 1 week prior to experimentation.
# Rabbits were briefly restrained and had one ear closely clipped and cleaned with a 70% isopropyl alcohol pad. A 22 G plastic catheter was placed in the central ear artery and another similar catheter placed in the marginal ear vein; both catheters were connected to an end cap with a rubber diaphragm that allowed the withdrawal of blood samples and administration of medications. The animals were sedated intravenously with 1 mg/kg midazolam, with supplemental doses of 0.5-1 mg/kg provided during experimentation to maintain sedation. […] Heart rate (HR) and SpO2 were recorded at baseline and every 15 min thereafter until the end of the experiment.
# An approximately 5 cm by 5 cm area of skin over either flank of the rabbit, midway between the lumbar spine and mid abdomen, was closely shaved and cleaned with a 70% isopropyl alcohol pad. A 1 cm circle was drawn with a felt tip marker in the center of this area, which served as the injection site for venom and antivenom as appropriate. After obtaining baseline HR value, SpO2 value, and the initial blood sample, venom was injected subcutaneously in the middle of the circle through a ⅝ inch long, 25 G needle. […]
# [4] = tested on: Pseudonaja textilis venom; settings: previously characterized by this laboratory; cited from earlier work
# Echis leucogaster venom = assay: Thrombelastography in human plasma of venom procoagulant activity after isolated exposure of venom to compounds; format: biochemical; settings: venom exposed 5 min to 100 μM CORM-2 in 5% human albumin; venom 1 μg/mL in plasma
# [5] = target: Mojave rattlesnake (Crotalus scutulatus scutulatus) venom type A (Crotalus scutulatus scutulatus, UniProt P62023); assay: Thrombelastography in human plasma of PLA2-dependent anticoagulant activity of venom; format: biochemical
# Protocol: With regard to materials and methods, Mojave rattlesnake (Crotalus scutulatus scutulatus) venom type A was originally obtained from the National Natural Toxins Research Center (NNTRC) located at Texas A&M University-Kingsville, Kingsville, TX, U.S.A. A previously unthawed aliquot of this venom used in a previous work (see, Nielsen V G (2019) J Thromb Thrombolysis 48, 256-262) was dissolved in calcium-free phosphate buffered saline (PBS, Sigma-Aldrich, Saint Louis, MO, USA) at a concentration of 50 mg/ml, and had been stored at −80° C. RuCl3 as obtained from Sigma-Aldrich, Saint Louis, MO, USA. Calcium chloride (CaCl2, 200 mM) was obtained from Haemonetics Inc., Braintree, MA, USA. Lastly, pooled normal human plasma (George King Bio-Medical, Overland Park, KS, USA) anticoagulated with sodium citrate (9 parts blood to 1 part 0.105M sodium citrate) stored at −80° C. was utilized in all subsequently described experiments.
# Specific volumes of subsequently described plasma and chemical additives varied by condition but summated to 360 μl. Sample composition consisted of 320 μl of plasma; 16.4 μl of PBS, 20 μl of 200 mM CaCl2, and 3.6 μl of one of five subsequently described solutions, which were placed into a disposable cup in a computer-controlled Thrombelastograph® hemostasis system (Model 5000, Haemonetics Inc., Braintree, MA, USA) at 37° C., and then rapidly mixed by moving the cup up against and then away from the plastic pin five times before leaving the mixture between the cup and pin. The following elastic modulus-based parameters previously described (see, Nielsen V G (2019) J Thromb Thrombolysis 48, 256-262; Nielsen V G, Frank N, Matika R W (2018) Biometals 31, 51-59; Nielsen V G, Frank N, Turchioe B J (2019) Blood Coagul Fibrinolysis 30, 379-384; Nielsen V G (2021) J Thromb Thrombolysis, doi: 10.1007/s11239-020-02373-4) were determined: time to maximum rate of thrombus generation (TMRTG): this is the time interval (minutes) observed prior to maximum speed of clot growth; maximum rate of thrombus generation (MRTG): this is the maximum velocity of clot growth observed (dynes/cm^2/second); and total thrombus generation (TTG, dynes/cm^2), the final viscoelastic resistance observed after clot formation. Data were collected until maximum amplitude was reached as determined by the software of the thrombelastographic system.
# Experiments involving plasma exposure to RuCl3 and venom utilized the following five experimental conditions: 1) control condition (C)—no venom, 1% addition of PBS (v/v) to plasma; 2) RuCl3 in water condition (R/W)—no venom, 1% addition (v/v) of 100 μM RuCl3 dissolved in water to plasma (final concentration 1 μM); 3) RuCl3 in PBS condition (R/P)—no venom, 1% addition (v/v) of 100 μM RuCl3 dissolved in PBS to plasma (final concentration 1 μM); 4) venom condition (V)—venom addition (v/v, 125 ng/ml final concentration as previously reported) in PBS to plasma; and, 5) venom exposed to RuCl3 dissolved in PBS condition (V+R/P)—venom and 100 μM RuCl3 1% addition (v/v) in PBS to plasma. All the solutions used for these five conditions to be placed in plasma remained at room temperature for five minutes prior to addition.
# [6] = venom exposed 5 min to 100 μM RuCl3 in PBS vs RuCl3 naïve venom, venom 125 ng/ml
compound,measurement,setting,value
"[C-]#[O+].[C-]#[O+].[C-]#[O+].[C-]#[O+].[C-]#[O+].[C-]#[O+].[Cl][Ru][Cl].[Cl][Ru][Cl] [CORM-2, tricarbonyldichlororuthenium(II) dimer]",tolerability,[1],well tolerated
same,anticoagulant effects of venom in vitro,[2],very effectively abrogated
same,CORM-2/ iRM Inhibition,Atheris nitschei venom,Yes
same,plasmatic velocity of clot formation and strength,[3]; 10 mg/kg CORM-2 injected into venom site 5 min after venom 11.2 mg/kg,appeared to preserve the velocity of clot formation and strength until the third hour after venom injection
same,plasmatic velocity of clot formation,[3]; 20 mg/kg CORM-2 injected into venom site after venom 11.2 mg/kg,minimally affected for the three hours after venom injection
same,CORM-2/ iRM Inhibition,[4],Yes
same,procoagulant activity of venom,Echis leucogaster venom,uninhibited
"[Cl][Ru]([Cl])[Cl] [RuCl3, ruthenium(III) chloride]","neurotoxic, anticoagulant PLA2 activity","[5]; RuCl3 dissolved in PBS, 100 μM",inhibited
same,decrease in TMRTG values,[5]; [6],47%
same,increase in MRTG values,[5]; [6],375%
same,increase in TTG values,[5]; [6],231%
same,"TMRTG, MRTG or TTG values",[5]; venom exposed to 100 μM RuCl3 in PBS vs control condition (no venom),no significant differences

# — patent US20260216239A1 (Arizona Board of Regents on Behalf of the University of …, priority 2020, published 2026)
